Results taken from patent US9586961B2, “Homopiperazine derivatives as protein tyrosine kinase inhibitors and pharmaceutical use thereof” (LEO PHARMA A/S, priority 2010, dated 2017).

How the values were obtained:
Assay type in all cases: biochemical
[1] = biological target: T1, JAK3 (Homo sapiens, UniProt P52333); test: JAK3 kinase assay (HTRF, inhibition of phosphorylation of a synthetic peptide); conditions: catalytic domain, His-tag; 2 μM ATP (Km); read-out: JAK3 kinase inhibitory activity (EC50)
T1 construct: All four purified enzymes contain only the catalytic domain; His (N); purchased Carna Biosciences, Inc; host or cells: baculovirus expression system
Method in brief: (§1)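 Baculovirus-expressed human catalytic domains (GST-JAK1, GST-TYK2, His-JAK2, His-JAK3) phosphorylated 1 μM TK substrate-biotin at ATP Km (JAK1 7 μM, JAK2 4 μM, JAK3 2 μM, TYK2 13 μM) in pH 7.0 Hepes for 20-30 min at RT, 0.75% DMSO. EDTA stop, then overnight streptavidin-XL665/cryptate-antibody detection and HTRF read.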

[2] = biological target: T2, JAK1 (Homo sapiens, UniProt P23458); test: JAK1 kinase assay (HTRF, inhibition of phosphorylation of a synthetic peptide); conditions: catalytic domain aa 850-1154, GST-tag; 7 μM ATP (Km); read-out: JAK1 kinase inhibitory activity (EC50)
T2 construct: JAK1 (aa 850-1154) and TYK2 (aa 871-1187) are expressed with an N-terminally fused GST-tag; GST (N); purchased Carna Biosciences, Inc; host or cells: baculovirus expression system
Method in brief: as §1

[3] = biological target: T3, JAK2 (Homo sapiens, UniProt O60674); test: JAK2 kinase assay (HTRF, inhibition of phosphorylation of a synthetic peptide); conditions: catalytic domain, His-tag; 4 μM ATP (Km); read-out: JAK2 kinase inhibitory activity (EC50)
T3 construct: All four purified enzymes contain only the catalytic domain; His (N); purchased Carna Biosciences, Inc; host or cells: baculovirus expression system
Method in brief: as §1

T1 sequence (P52333 822-1111 limits assumed): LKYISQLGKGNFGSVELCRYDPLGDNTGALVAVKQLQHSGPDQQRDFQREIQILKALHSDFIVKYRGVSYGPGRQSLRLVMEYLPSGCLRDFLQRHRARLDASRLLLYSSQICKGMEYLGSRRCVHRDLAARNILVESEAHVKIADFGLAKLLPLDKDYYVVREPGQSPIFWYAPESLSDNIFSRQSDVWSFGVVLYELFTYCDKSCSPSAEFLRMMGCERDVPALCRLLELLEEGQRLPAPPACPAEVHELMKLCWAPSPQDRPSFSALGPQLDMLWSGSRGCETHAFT
T3 sequence (O60674 849-1124 limits assumed): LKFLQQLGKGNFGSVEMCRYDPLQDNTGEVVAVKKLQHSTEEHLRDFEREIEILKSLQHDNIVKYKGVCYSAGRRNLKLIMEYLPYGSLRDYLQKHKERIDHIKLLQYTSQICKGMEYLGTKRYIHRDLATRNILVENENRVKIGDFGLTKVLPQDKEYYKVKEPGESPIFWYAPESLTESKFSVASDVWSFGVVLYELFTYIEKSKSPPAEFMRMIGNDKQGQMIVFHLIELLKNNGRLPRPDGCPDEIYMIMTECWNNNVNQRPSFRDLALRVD
T2 sequence (P23458 850-1154): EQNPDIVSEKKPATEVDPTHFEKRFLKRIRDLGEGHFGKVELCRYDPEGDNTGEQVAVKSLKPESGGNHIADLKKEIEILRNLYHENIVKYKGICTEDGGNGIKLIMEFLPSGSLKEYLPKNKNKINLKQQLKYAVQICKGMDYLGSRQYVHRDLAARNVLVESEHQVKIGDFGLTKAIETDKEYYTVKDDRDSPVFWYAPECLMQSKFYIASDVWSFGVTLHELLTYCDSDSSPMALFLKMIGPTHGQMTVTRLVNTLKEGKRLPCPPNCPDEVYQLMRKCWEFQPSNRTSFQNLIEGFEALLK

| Compound | EC50 [1] [nM] | EC50 [2] [nM] | EC50 [3] [nM] |
| --- | --- | --- | --- |
| O=C(c1ccccc1Cl)N1CCCN(c2ncnc3[nH]ccc23)CC12CC2 [Example 178, (2-chlorophenyl)-[5-(7H-pyrrolo[2,3-d]pyrimidin-4-yl)-5,9-diazaspiro[2.6]nonan-9-yl]methanone] | > 1000 | 100 to 1000 | 100 to 1000 |
| O=C(c1cccc(Cl)c1)N1CCCN(c2ncnc3[nH]ccc23)CC12CC2 [Example 179, (3-chlorophenyl)-[5-(7H-pyrrolo[2,3-d]pyrimidin-4-yl)-5,9-diazaspiro[2.6]nonan-9-yl]methanone] | 100 to 1000 | 100 to 1000 | < 100 |
| O=C(c1ccc(Cl)cc1)N1CCCN(c2ncnc3[nH]ccc23)CC12CC2 [Example 180, (4-chlorophenyl)-[5-(7H-pyrrolo[2,3-d]pyrimidin-4-yl)-5,9-diazaspiro[2.6]nonan-9-yl]methanone] | 100 to 1000 | < 100 | < 100 |
| O=C(c1ccno1)N1CCCN(c2ncnc3[nH]ccc23)CC12CC2 [Example 181, isoxazol-5-yl-[5-(7H-pyrrolo[2,3-d]pyrimidin-4-yl)-5,9-diazaspiro[2.6]nonan-9-yl]methanone] | 100 to 1000 | < 100 | < 100 |
| O=C(c1cc[nH]n1)N1CCN(c2ncnc3[nH]ccc23)CC2(CC2)C1 [Example 182, 1H-pyrazol-3-yl-[5-(7H-pyrrolo[2,3-d]pyrimidin-4-yl)-5,8-diazaspiro[2.6]nonan-8-yl]methanone] | 100 to 1000 | 100 to 1000 | 100 to 1000 |
| O=C(c1cc[nH]n1)N1CCCN(c2ncnc3[nH]ccc23)CC12CC2 [Example 183, 1H-pyrazol-3-yl-[5-(7H-pyrrolo[2,3-d]pyrimidin-4-yl)-5,9-diazaspiro[2.6]nonan-9-yl]methanone] | 100 to 1000 | 100 to 1000 | 100 to 1000 |
| Cc1cc(CC(=O)N2CCN(c3ncnc4[nH]ccc34)CC3(CC3)C2)on1 [Example 184, 2-(3-methylisoxazol-5-yl)-1-[5-(7H-pyrrolo[2,3-d]pyrimidin-4-yl)-5,8-diazaspiro[2.6]nonan-8-yl]ethanone] | 100 to 1000 | < 100 | < 100 |
| O=C(c1ccccc1Cl)N1CCN(c2ncnc3[nH]ccc23)CC2(CC2)C1 [Example 185, (2-chlorophenyl)-[5-(7H-pyrrolo[2,3-d]pyrimidin-4-yl)-5,8-diazaspiro[2.6]nonan-8-yl]methanone] | > 1000 | 100 to 1000 | 100 to 1000 |
| O=C(c1cccc(Cl)c1)N1CCN(c2ncnc3[nH]ccc23)CC2(CC2)C1 [Example 186, (3-chlorophenyl)-[5-(7H-pyrrolo[2,3-d]pyrimidin-4-yl)-5,8-diazaspiro[2.6]nonan-8-yl]methanone] | > 1000 | 100 to 1000 | 100 to 1000 |
| Cc1oncc1C(=O)N1CCCN(c2ncnc3[nH]ccc23)CC12CC2 [Example 187, (5-methylisoxazol-4-yl)-[5-(7H-pyrrolo[2,3-d]pyrimidin-4-yl)-5,9-diazaspiro[2.6]nonan-9-yl]methanone] | 100 to 1000 | 100 to 1000 | 100 to 1000 |
| O=C(c1ccccn1)N1CCN(c2ncnc3[nH]ccc23)CC2(CC2)C1 [Example 188, 2-pyridyl-[5-(7H-pyrrolo[2,3-d]pyrimidin-4-yl)-5,8-diazaspiro[2.6]nonan-8-yl]methanone] | > 1000 | > 1000 | 100 to 1000 |
| O=C(c1ccccn1)N1CCCN(c2ncnc3[nH]ccc23)CC12CC2 [Example 189, 2-pyridyl-[5-(7H-pyrrolo[2,3-d]pyrimidin-4-yl)-5,9-diazaspiro[2.6]nonan-9-yl]methanone] | > 1000 | 100 to 1000 | < 100 |
| O=C(c1ccnc(O)c1)N1CCN(c2ncnc3[nH]ccc23)CC2(CC2)C1 [Example 190, (2-hydroxy-4-pyridyl)-[5-(7H-pyrrolo[2,3-d]pyrimidin-4-yl)-5,8-diazaspiro[2.6]nonan-8-yl]methanone] | > 1000 | 100 to 1000 | 100 to 1000 |
| Cc1ncoc1C(=O)N1CCN(c2ncnc3[nH]ccc23)CC2(CC2)C1 [Example 191, (4-methyloxazol-5-yl)-[5-(7H-pyrrolo[2,3-d]pyrimidin-4-yl)-5,8-diazaspiro[2.6]nonan-8-yl]methanone] | > 1000 | 100 to 1000 | 100 to 1000 |
| Cc1ncoc1C(=O)N1CCCN(c2ncnc3[nH]ccc23)CC12CC2 [Example 192, (4-methyloxazol-5-yl)-[5-(7H-pyrrolo[2,3-d]pyrimidin-4-yl)-5,9-diazaspiro[2.6]nonan-9-yl]methanone] | 100 to 1000 | 100 to 1000 | 100 to 1000 |
| Cc1cc(C(=O)N2CCCN(c3ncnc4[nH]ccc34)CC23CC3)n(C)n1 [Example 193, (2,5-dimethylpyrazol-3-yl)-[5-(7H-pyrrolo[2,3-d]pyrimidin-4-yl)-5,9-diazaspiro[2.6]nonan-9-yl]methanone] | > 1000 | 100 to 1000 | < 100 |
| Cc1nnc(C(=O)N2CCN(c3ncnc4[nH]ccc34)CC3(CC3)C2)o1 [Example 194, (5-methyl-1,3,4-oxadiazol-2-yl)-[5-(7H-pyrrolo[2,3-d]pyrimidin-4-yl)-5,8-diazaspiro[2.6]nonan-8-yl]methanone] | > 1000 | 100 to 1000 | 100 to 1000 |
| O=C(c1nc[nH]n1)N1CCN(c2ncnc3[nH]ccc23)CC2(CC2)C1 [Example 195, [5-(7H-pyrrolo[2,3-d]pyrimidin-4-yl)-5,8-diazaspiro[2.6]nonan-8-yl]-(1H-1,2,4-triazol-3-yl)methanone] | > 1000 | 100 to 1000 | 100 to 1000 |
| Cc1cnc(C(=O)N2CCN(c3ncnc4[nH]ccc34)CC3(CC3)C2)cn1 [Example 196, (5-methylpyrazin-2-yl)-[5-(7H-pyrrolo[2,3-d]pyrimidin-4-yl)-5,8-diazaspiro[2.6]nonan-8-yl]methanone] | > 1000 | > 1000 | > 1000 |
| Cc1cnc(C(=O)N2CCCN(c3ncnc4[nH]ccc34)CC23CC3)cn1 [Example 197, (5-methylpyrazin-2-yl)-[5-(7H-pyrrolo[2,3-d]pyrimidin-4-yl)-5,9-diazaspiro[2.6]nonan-9-yl]methanone] | > 1000 | 100 to 1000 | 100 to 1000 |
| Cc1cncc(C(=O)N2CCCN(c3ncnc4[nH]ccc34)CC23CC3)n1 [Example 198, (6-methylpyrazin-2-yl)-[5-(7H-pyrrolo[2,3-d]pyrimidin-4-yl)-5,9-diazaspiro[2.6]nonan-9-yl]methanone] | > 1000 | 100 to 1000 | 100 to 1000 |
| Cc1noc(C)c1C(=O)N1CCCN(c2ncnc3[nH]ccc23)CC12CC2 [Example 199, (3,5-dimethylisoxazol-4-yl)-[5-(7H-pyrrolo[2,3-d]pyrimidin-4-yl)-5,9-diazaspiro[2.6]nonan-9-yl]methanone] | > 1000 | > 1000 | > 1000 |
| O=C(c1ccsn1)N1CCN(c2ncnc3[nH]ccc23)CC2(CC2)C1 [Example 200, isothiazol-3-yl-[5-(7H-pyrrolo[2,3-d]pyrimidin-4-yl)-5,8-diazaspiro[2.6]nonan-8-yl]methanone] | 100 to 1000 | 100 to 1000 | 100 to 1000 |
| O=C(c1cnsn1)N1CCN(c2ncnc3[nH]ccc23)CC2(CC2)C1 [Example 202, [5-(7H-pyrrolo[2,3-d]pyrimidin-4-yl)-5,8-diazaspiro[2.6]nonan-8-yl]-(1,2,5-thiadiazol-3-yl)methanone] | 100 to 1000 | 100 to 1000 | 100 to 1000 |
| O=C(c1c[nH]nn1)N1CCN(c2ncnc3[nH]ccc23)CC2(CC2)C1 [Example 204, [5-(7H-pyrrolo[2,3-d]pyrimidin-4-yl)-5,8-diazaspiro[2.6]nonan-8-yl]-(1H-triazol-4-yl)methanone] | 100 to 1000 | 100 to 1000 | 100 to 1000 |
| O=C(c1c[nH]nn1)N1CCCN(c2ncnc3[nH]ccc23)CC12CC2 [Example 205, [5-(7H-pyrrolo[2,3-d]pyrimidin-4-yl)-5,9-diazaspiro[2.6]nonan-9-yl]-(1H-triazol-4-yl)methanone] | 100 to 1000 | 100 to 1000 | 100 to 1000 |
| Cc1[nH]ncc1C(=O)N1CCN(c2ncnc3[nH]ccc23)CC2(CC2)C1 [Example 206, (5-methyl-1H-pyrazol-4-yl)-[5-(7H-pyrrolo[2,3-d]pyrimidin-4-yl)-5,8-diazaspiro[2.6]nonan-8-yl]methanone] | 100 to 1000 | 100 to 1000 | 100 to 1000 |
| Cc1[nH]ncc1C(=O)N1CCCN(c2ncnc3[nH]ccc23)CC12CC2 [Example 207, (5-methyl-1H-pyrazol-4-yl)-[5-(7H-pyrrolo[2,3-d]pyrimidin-4-yl)-5,9-diazaspiro[2.6]nonan-9-yl]methanone] | > 1000 | > 1000 | 100 to 1000 |
| N#Cc1c[nH]c(C(=O)N2CCN(c3ncnc4[nH]ccc34)CC3(CC3)C2)c1 [Example 208, 5-[5-(7H-pyrrolo[2,3-d]pyrimidin-4-yl)-5,8-diazaspiro[2.6]nonane-8-carbonyl]-1H-pyrrole-3-carbonitrile] | 100 to 1000 | < 100 | < 100 |
